This is an account of results in ChEMBL document CHEMBL5532747, “Potent, Selective, and Orally Bioavailable Quinazoline-Based STK17A/B Dual Inhibitors” (ACS Med Chem Lett, 2024).

Series [1] is described as follows: AUClast in C57BL/6 mouse at 10 mg/kg,po administration and measured upto 24 hrs. It is filed as ADME, organism-based. As to conditions: in vivo.
In series [2] the target is Serine/threonine-protein kinase 17B (Homo sapiens) (UniProt O94768). The series can be described thus: Inhibition of STK17B (unknown origin) at 1 uM in presence of ATP relative to control.
The target of series [3] is Serine/threonine-protein kinase Nek5 (Homo sapiens, UniProt Q6P3R8). The series can be described thus: Inhibition of NEK5 (unknown origin) in presence of ATP.
Series [4] deals with Dual specificity protein kinase CLK4 (Homo sapiens, UniProt Q9HAZ1). The series can be described thus: Inhibition of CLK4 (unknown origin) in presence of ATP.
Series [5] is described as follows: Microsomal stability in human liver microsomes assessed as half life. The class given is ADME, Microsome. On the technique in general: Liver microsomes are a subcellular fraction often used to study metabolism.
Series [6] addresses T1, Serine/threonine-protein kinase 17A (Homo sapiens, UniProt Q9UEE5).
T1 sequence (Q9UEE5 whole entry): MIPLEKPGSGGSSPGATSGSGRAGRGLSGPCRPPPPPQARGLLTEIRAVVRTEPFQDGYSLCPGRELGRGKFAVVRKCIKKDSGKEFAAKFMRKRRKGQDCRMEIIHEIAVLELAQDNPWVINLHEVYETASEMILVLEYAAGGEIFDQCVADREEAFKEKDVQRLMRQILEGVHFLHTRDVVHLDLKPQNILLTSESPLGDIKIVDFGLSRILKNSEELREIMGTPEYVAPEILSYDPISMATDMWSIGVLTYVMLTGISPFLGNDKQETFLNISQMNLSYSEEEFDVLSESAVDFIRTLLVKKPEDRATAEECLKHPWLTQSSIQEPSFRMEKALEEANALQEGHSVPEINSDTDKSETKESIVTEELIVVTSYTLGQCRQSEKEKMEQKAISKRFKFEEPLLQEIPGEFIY
Kind of series: Inhibition of STK17A (unknown origin) in presence of ATP.

Series [7] is described as follows: Half life in C57BL/6 mouse at 10 mg/kg,po administration and measured upto 24 hrs. It is filed as ADME, organism-based. The conditions noted are these: in vivo.
Series [8] has as its system Kasumi 1. Kind of series: Antiproliferative activity against human Kasumi 1 cells assessed as inhibition of cell growth incubated for 72 hrs by Cell Titer-Glo luminescence assay. The class given is functional, cell-based. As to conditions: Kasumi 1, 72 h. (In general: Cellular ATP, detected with luciferase, serves as a proxy for viable cell number.)
Series [9] deals with Serine/threonine-protein kinase Nek5 (Homo sapiens) (UniProt Q6P3R8). The conditions noted are these: dose 100.0 nM.
Description: Inhibition of NEK5 (unknown origin) at 100 nM in presence of ATP relative to control
Series [10] is described as follows: Cmax in C57BL/6 mouse at 10 mg/kg,po administration and measured upto 24 hrs. The class given is ADME, organism-based. The conditions noted are these: in vivo.
The target of series [11] is T2, LIM domain kinase 1 (Homo sapiens, UniProt P53667). The conditions noted are these: dose 100.0 nM.
Target sequence in this assay (P53667 whole entry, looked up, the tested form may be a part): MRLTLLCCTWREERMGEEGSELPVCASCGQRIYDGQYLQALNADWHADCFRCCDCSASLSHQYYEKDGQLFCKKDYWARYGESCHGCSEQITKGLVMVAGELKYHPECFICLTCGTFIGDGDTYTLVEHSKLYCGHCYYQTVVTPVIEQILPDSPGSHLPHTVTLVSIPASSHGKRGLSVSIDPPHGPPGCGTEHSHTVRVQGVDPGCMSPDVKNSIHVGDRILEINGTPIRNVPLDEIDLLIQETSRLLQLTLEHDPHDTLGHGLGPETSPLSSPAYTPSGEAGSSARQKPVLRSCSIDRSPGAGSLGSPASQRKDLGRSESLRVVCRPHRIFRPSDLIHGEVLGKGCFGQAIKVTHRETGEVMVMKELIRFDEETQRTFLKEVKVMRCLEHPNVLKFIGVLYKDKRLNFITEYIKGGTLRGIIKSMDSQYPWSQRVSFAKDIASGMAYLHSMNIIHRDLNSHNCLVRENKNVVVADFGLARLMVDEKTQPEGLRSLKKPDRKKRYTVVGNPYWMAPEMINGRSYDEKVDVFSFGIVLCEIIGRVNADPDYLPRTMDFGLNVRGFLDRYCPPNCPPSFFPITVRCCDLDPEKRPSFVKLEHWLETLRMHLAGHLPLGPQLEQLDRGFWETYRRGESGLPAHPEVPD
Description: Inhibition of LIMK1 (unknown origin) at 100 nM in presence of ATP relative to control
Series [12] has as its system HEL. The series can be described thus: Antiproliferative activity against human HEL cells assessed as inhibition of cell growth incubated for 72 hrs by Cell Titer-Glo luminescence assay. The class given is functional, cell-based.
Series [13] can be described thus: Tmax in C57BL/6 mouse at 10 mg/kg,po administration and measured upto 24 hrs. The class given is ADME, organism-based. As to conditions: in vivo.
Series [14] can be described thus: Antiproliferative activity against human HEK293T cells assessed as inhibition of cell growth incubated for 72 hrs by Cell Titer-Glo luminescence assay. It is filed as toxicity, cell-based, HEK-293T.
The target of series [15] is CYP3A4 (Homo sapiens, UniProt P08684). Kind of series: Inhibition of CYP3A4 (unknown origin) using midazolam as substrate at 10 uM by cocktail based assay relative to control. It is filed as ADME. As to conditions: probe midazolam.
Series [16] concerns the target T3, Myosin light chain kinase family member 4 (Homo sapiens, UniProt Q86YV6).
T3 sequence (Q86YV6 whole entry): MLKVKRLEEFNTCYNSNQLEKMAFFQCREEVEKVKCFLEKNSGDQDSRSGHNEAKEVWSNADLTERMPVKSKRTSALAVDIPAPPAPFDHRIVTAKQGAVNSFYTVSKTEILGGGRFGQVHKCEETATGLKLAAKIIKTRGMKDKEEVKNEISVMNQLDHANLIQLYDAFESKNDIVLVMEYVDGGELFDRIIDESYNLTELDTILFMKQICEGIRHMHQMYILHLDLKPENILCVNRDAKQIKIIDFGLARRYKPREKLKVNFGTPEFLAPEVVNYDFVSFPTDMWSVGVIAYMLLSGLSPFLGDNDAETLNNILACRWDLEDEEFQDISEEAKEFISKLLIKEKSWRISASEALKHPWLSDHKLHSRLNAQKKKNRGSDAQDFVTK
Kind of series: Inhibition of MYLK4 (unknown origin) in presence of ATP.

The target in series [17] is T4, CYP1A2 (Homo sapiens, UniProt P05177).
T4 sequence (P05177 whole entry): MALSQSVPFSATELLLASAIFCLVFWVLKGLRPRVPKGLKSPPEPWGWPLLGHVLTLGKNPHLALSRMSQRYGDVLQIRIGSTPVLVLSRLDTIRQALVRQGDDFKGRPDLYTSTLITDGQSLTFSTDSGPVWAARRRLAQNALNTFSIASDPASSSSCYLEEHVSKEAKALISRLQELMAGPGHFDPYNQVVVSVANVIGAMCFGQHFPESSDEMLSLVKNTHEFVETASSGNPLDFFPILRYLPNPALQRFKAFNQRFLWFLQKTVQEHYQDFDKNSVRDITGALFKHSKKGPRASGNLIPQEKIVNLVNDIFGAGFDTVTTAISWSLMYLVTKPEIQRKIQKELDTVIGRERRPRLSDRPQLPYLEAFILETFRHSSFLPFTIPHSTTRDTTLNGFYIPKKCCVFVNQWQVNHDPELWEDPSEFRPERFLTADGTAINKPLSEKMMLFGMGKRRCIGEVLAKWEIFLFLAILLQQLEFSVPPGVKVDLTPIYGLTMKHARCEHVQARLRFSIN
The series can be described thus: Inhibition of CYP1A2 (unknown origin) using phenacetin as substrate at 10 uM by cocktail based assay relative to control. It is filed as ADME. As to conditions: probe phenacetin.

Series [18] has as its target T2, LIM domain kinase 1. Kind of series: Inhibition of LIMK1 (unknown origin) in presence of ATP.
Target sequence in this assay (P53667 whole entry, the tested form may be a part): as the sequence (P53667 whole entry, looked up, the tested form may be a part) above
Series [19] deals with CYP2C9 (Homo sapiens, UniProt P11712). The series can be described thus: Inhibition of CYP2C9 (unknown origin) using tolbutamide as substrate at 10 uM by cocktail based assay relative to control. It is filed as ADME. The conditions noted are these: probe tolbutamide.
In series [20] the target is Serine/threonine-protein kinase Nek3 (Homo sapiens) (UniProt P51956). As to conditions: dose 100.0 nM.
Description: Inhibition of NEK3 (unknown origin) at 100 nM in presence of ATP relative to control
The nature of series [21]: Microsomal stability in mouse liver microsomes assessed as half life. It is filed as ADME, Microsome.
For series [22], the target named is Serine/threonine-protein kinase Nek3 (Homo sapiens, UniProt P51956). The series can be described thus: Inhibition of NEK3 (unknown origin) in presence of ATP.
For series [23], the system named is MOLM-13. Kind of series: Antiproliferative activity against human MOLM-13 cells assessed as inhibition of cell growth incubated for 72 hrs by Cell Titer-Glo luminescence assay. As to conditions: MOLM-13, 72 h. The class given is functional, cell-based.
Series [24] concerns the target CYP2D6 (Homo sapiens, UniProt P10635). The series can be described thus: Inhibition of CYP2D6 (unknown origin) using bufuralol as substrate at 10 uM by cocktail based assay relative to control. The class given is ADME. As to conditions: probe bufuralol.

For orientation: AUC(0-t) means the area under the concentration-time curve up to a stated or last time point. Low values mean less exposure, high ones more exposure. One may read the inhibition as the share of the control response that was lost under treatment. In general, IC50 refers to the point on the concentration scale where inhibition reaches its midpoint. A word on the half-life: it is how long it takes for the measured level to halve. A word on the Cmax: it is the peak of the concentration-time curve. In general, Tmax refers to the time from dosing to the highest level.

CYP2D6, sequence (P10635 whole entry): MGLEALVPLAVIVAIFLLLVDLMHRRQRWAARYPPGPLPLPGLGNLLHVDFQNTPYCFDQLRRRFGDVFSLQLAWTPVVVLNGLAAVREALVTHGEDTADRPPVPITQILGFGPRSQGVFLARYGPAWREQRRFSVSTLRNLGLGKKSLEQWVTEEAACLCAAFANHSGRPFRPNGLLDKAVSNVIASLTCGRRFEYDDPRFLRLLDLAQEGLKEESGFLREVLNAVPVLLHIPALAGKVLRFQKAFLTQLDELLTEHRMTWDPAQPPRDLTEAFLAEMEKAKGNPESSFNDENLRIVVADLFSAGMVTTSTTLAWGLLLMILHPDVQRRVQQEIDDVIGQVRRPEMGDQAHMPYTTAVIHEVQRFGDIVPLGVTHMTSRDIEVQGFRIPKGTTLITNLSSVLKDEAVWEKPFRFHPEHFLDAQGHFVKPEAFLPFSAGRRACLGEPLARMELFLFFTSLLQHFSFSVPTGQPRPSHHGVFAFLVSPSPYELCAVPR
Dual specificity protein kinase CLK4, sequence (Q9HAZ1 whole entry): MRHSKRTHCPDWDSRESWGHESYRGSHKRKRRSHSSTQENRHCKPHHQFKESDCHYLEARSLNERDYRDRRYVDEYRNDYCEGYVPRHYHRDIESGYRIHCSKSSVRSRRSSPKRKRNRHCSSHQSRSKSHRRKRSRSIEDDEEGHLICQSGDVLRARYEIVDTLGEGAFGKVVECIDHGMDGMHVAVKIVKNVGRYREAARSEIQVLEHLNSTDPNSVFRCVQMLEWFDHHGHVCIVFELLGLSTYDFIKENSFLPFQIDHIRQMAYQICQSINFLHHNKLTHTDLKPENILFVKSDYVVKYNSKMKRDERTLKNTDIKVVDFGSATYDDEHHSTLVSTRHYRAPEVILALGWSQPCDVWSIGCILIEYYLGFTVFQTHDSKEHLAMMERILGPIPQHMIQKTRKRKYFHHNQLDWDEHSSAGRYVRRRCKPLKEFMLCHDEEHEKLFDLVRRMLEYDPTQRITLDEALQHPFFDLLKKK
Serine/threonine-protein kinase Nek5 (Homo sapiens), sequence (Q6P3R8 whole entry): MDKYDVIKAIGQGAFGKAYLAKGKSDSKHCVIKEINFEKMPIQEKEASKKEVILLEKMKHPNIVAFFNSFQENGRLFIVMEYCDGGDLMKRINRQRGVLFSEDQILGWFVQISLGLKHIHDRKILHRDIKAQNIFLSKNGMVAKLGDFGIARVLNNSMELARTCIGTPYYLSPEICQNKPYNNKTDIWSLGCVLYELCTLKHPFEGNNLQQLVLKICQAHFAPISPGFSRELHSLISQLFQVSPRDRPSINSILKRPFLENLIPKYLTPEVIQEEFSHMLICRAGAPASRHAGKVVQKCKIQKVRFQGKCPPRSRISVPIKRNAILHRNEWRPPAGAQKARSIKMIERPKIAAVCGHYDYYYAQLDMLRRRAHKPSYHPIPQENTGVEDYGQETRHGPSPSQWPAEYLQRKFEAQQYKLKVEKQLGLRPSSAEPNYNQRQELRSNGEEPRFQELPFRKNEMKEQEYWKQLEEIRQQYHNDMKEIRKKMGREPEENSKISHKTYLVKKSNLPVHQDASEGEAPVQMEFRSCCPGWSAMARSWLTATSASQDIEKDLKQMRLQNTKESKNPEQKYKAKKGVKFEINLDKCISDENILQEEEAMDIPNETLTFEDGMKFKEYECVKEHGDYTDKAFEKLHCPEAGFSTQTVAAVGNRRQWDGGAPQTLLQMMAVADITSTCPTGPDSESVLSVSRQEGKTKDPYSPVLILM
Serine/threonine-protein kinase Nek5, sequence (Q6P3R8 whole entry): as above
CYP2C9, sequence (P11712 whole entry): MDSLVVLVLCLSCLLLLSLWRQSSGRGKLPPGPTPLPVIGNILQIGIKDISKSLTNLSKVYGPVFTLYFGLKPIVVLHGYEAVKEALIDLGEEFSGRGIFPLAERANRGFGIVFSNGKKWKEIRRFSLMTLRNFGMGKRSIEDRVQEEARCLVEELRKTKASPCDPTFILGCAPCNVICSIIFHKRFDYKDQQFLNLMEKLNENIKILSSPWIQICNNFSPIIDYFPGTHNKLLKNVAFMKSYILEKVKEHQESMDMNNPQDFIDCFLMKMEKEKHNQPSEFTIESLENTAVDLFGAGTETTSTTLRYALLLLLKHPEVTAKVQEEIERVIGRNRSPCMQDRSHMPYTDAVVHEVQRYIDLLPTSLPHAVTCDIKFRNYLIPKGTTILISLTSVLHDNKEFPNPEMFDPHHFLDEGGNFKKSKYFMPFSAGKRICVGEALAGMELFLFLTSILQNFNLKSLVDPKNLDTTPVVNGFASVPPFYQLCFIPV
Serine/threonine-protein kinase 17B (Homo sapiens), sequence (O94768 whole entry): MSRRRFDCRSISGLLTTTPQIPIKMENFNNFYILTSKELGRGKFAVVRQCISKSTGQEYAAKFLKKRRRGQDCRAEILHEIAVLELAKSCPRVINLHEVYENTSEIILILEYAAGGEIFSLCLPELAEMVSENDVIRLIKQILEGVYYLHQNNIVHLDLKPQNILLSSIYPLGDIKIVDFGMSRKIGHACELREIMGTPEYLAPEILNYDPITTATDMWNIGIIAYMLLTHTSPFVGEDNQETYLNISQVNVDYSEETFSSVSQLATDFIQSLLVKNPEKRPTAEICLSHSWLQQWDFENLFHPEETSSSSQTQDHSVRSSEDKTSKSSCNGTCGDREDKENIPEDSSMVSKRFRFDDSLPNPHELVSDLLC
CYP3A4, sequence (P08684 whole entry): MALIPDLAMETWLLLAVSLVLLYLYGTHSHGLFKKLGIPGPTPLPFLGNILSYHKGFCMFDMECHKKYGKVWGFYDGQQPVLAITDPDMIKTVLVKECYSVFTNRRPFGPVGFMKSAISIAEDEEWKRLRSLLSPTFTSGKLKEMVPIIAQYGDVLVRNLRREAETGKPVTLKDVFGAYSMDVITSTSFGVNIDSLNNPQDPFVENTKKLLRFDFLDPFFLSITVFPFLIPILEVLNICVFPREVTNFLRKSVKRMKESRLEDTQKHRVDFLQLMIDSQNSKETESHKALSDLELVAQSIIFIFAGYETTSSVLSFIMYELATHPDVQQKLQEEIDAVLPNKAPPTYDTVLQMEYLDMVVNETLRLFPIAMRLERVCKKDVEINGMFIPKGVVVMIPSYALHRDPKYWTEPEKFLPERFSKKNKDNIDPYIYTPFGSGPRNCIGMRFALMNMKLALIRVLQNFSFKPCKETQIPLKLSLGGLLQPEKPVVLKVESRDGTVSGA
Serine/threonine-protein kinase Nek3 (Homo sapiens), sequence (P51956 whole entry): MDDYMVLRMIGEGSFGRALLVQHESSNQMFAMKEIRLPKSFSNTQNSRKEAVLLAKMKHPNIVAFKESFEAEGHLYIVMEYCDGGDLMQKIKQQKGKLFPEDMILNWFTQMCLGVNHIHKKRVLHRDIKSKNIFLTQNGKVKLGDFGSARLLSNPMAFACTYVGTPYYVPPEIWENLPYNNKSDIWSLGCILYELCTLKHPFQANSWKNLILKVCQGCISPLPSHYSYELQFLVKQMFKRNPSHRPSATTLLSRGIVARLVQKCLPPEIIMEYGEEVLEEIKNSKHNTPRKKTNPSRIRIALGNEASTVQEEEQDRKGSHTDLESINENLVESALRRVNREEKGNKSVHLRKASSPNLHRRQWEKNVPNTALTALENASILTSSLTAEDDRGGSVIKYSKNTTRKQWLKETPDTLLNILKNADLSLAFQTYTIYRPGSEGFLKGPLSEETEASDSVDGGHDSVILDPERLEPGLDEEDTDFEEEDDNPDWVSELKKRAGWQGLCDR
Serine/threonine-protein kinase Nek3, sequence (P51956 whole entry): as above

Molecule `CC(C)NC(=O)c1ccc(Nc2nccc(-c3ccc4nc(N5CCCC5)ncc4c3)n2)cc1` came in with an AUC(0-t) at 24 h in series [1] of 4.2 µM·h. For the same molecule, the inhibition in [2] was 98%; in [9], 45%; in series [11] it was 46%; in [20], 40%. Moreover, the IC50 is 132 nM in series [3]; greater than 10 µM in series [4]; 23 nM in [6]; 7.67 µM in series [8]; 2310 nM in series [12]; 440 nM in series [16]. The IC50 amounted to 650 nM in [18], 245 nM in series [22] and 920 nM in series [23]. Also, the half-life is 45 min in [5], 162 min in [7] and 37 min in series [21]. Moreover, the concentration in series [10] peaked (Cmax) at 1000 nM. The Tmax in series [13] came to 1 h. Also, the IC50 at 72 h in series [14] was 99.5 µM. Moreover, the inhibition at 10 µM was 16% in series [15], less than 10% in series [17], 14% in [19] and 3% in [24].
